In US12415939B2, “Nano-adhesive and surface primer compound and use thereof” (The Regents of the University of California, priority 2015, dated 2025):
Where “and” joins values, the source holds several entries; their conditions need not be identical. Identical values can stand only once.

Columns and labels:
[1] = Surface forces apparatus (SFA) cohesion/adhesion between thin films on mica; assay type: physicochemical
[2] = Contact angle measurements on SAM-modified substrates; assay type: physicochemical; details: SAM-modified nano-grooved SiO2
Method: The nano-grooved SiO2 substrates passivated with Z-Cat-Ben or Z-Cat-Ben-F SAMs were prepared with the same procedure described above. For the reference substrate, the pre-cleaned and ultraviolet/ozone-treated (for 10 min) nano-grooved SiO2 substrate was passivated with n-decyltrichlorosilane (Gelest Inc.) in toluene solution (1% by volume) at 80° C. for 20 min in ambient air. Then, the substrate was subsequently sonicated in toluene and rinsed with additional toluene several times. Anhydrous chlorobenzene (50 μL) was used as a droplet dropping on the substrates. All contact angle images were taken at the direction perpendicular to nano-grooves in the substrates using Dataphysics OCA 15EC goniometer.

[3] = Cyclic voltammetry of catechol oxidation; assay type: physicochemical; details: for E1/2: DI water, scan rate 1 mV s−1, Ag/AgCl reference
Method: (§1) Cyclic voltammetry was performed on a Versastat 3 potentiostat from Ametek Co. These analyses were carried out using a three-electrode cell: a Pt wire as the counter electrode, an Ag/AgCl reference electrode, and a Carbon paste electrode (CPE) served as the working electrode. CPE is the best choice for adhesive materials because of its ability to be completely polished before each experiment. Catechol auto-oxidation was avoided by performing all electrochemical experiments with degassed deionized water in a glove bag under argon. Scan rate 1 mV s-1 was used for all experiments. CV of 5 mM synthesized polymers and 5 mM methyl catechol, a simple catechol-containing compound, were compared. Oxidation of Catechol carrying molecules occurred at more positive potentials than methyl catechol, indicating the unique structure of the dispersions provide shielding effects that stabilized catechol groups (FIG. 3).
Cyclic voltammetry was performed on a Versastat 3 potentiostat from Ametek Co. (Berwyn, PA). These analyses were carried out using a three-electrode cell: a Pt wire as the counter electrode, an Ag/AgCl reference electrode, and a Carbon paste electrode (CPE) served as the working electrode. CPE is the best choice for adhesive materials because of its ability to be completely polished before each experiment.
as §1, with “s^−1” for “s-1”, “molecules” for “polymers”, “groups. Z-Cat-Ben with an oxidation peak at 840 mV is more resistant to oxidation than the other species” for “groups”, “42).” for “3).”

[4] = Standard three point bending peel test; details: ambient dry, n=4
Method: Samples were prepared as described above in “Lap Joint Bending Peel Test” underwater, i.e., aqueous periodate solution, then dried 12 h and 24 h, respectively, in ambient condition. In this standard three point bending peel test, the cross section area was 2.54 cm×1.27 cm.
The standard three point bending peel test (FIG. 24F) was conducted with a Bionix 200 tensile tester (MTS Systems) in ambient conditions. All tests were conducted with a test speed of 5 mm min-1.

[5] = Z-Cat-C10 0.1 mg ml−1 sample in DI water

Row | SMILES | effect of sodium periodate treatment on cohesion ([1]; 500 pmoles periodate) | cohesion energy Wc between SAMs ([1]; 5 mM in DI water, mica) | effect of aqueous Fe3+ on cohesion ([1]; CFe3+=10 M as printed) | hard-wall thickness ([1]; SAMs from 5 mM, mica) | cohesion energy Wc before and after periodate and iron treatments ([1]; SAMs on mica) | molecular density on mica ([1]; from cohesion energy and π-π interaction) | contact angle θ of chlorobenzene droplet [2] | stability in water to oxidation (shelf life) ([3]; 5 mM in DI water) | oxidation peak ([3]; 5 mM in degassed DI water, 1 mV s−1) | E1/2 [3] | three point bending peel strength [4] | adhesion on mica relative to mfp-5 and mfp-amyloid fusion protein [1] | increase in adhesion after asymmetric oxidation ([1]; after tc=60 min contact time) | decrease in cohesion after symmetric periodate oxidation ([1]; contact times ≤tc=10 min, rebounded after tc=60 min) | adhesion energy Wad after periodate oxidation ([1]; cross-linked films on mica, tc=12 h compressive contact) | thin film thickness ([1]; post-oxidation, crosslinked films) | cohesion (or adhesion) energy Wc ([1]; symmetric films adsorbed from 5 mM, DI water, mica) | work of adhesion before periodate ([1]; uncross-linked films on mica) | oxidation peak [3, 5] | reduction peak [3, 5]
1 | C[N+](C)(CCCc1ccccc1)CCOP(=O)([O-])OCCCc1ccc(O)c(O)c1 [Z-Cat-Ben] | same before and after | 19±3 mJ/m^2 and 18.7±2.8 mJ/m^2 | not affected | ~1 nm | ~20 mJ/m^2 | 1.07×10^18 molecules per m^2 | ≈ 1 ° | stable (shelf life) in water to oxidation | 840 mV | 0.418 V | – | – | – | – | – | – | – | – | – | –
2 | CN(C)CCOP(=O)(O)OCCCc1ccc(O)c(O)c1 [Z-Cat-C10] | – | – | – | – | – | – | – | – | – | ~0.25 V | 20.5 N cm^−1 | 2-3 fold | 50% | 50% | ~50 mJ m^−2 | 2-4 nm | 10.1±2.3 mJ m^−2 | ~20 mJ m^−2 | 530 mV | 316 mV
